US12653796B2, “Compounds for use (in particular RIPA-56) in the prevention and/or treatment of non-alcoholic fatty liver disease” (SORBONNE UNIVERSITE, priority 2019, dated 2026)

Tests used:
L929 cells = assay: TNF-induced RIPK1-dependent cell death in L929 cells (MTT cell survival); type: cell-based; details: 20 μM, 2 h pre-treatment, TNF (50 ng/mL) 20 h
Protocol: FIG. 1. RIPA-56 prevents RIPK1-dependent cell death in L929 cells upon caspase inhibition and TNF stimulation. L929 cells were treated with RIPA-56 (20 μM), Nec-1 (20 μM) or vehicle for 2 h, prior to incubation with or without TNF (50 ng/mL), and analyzed for (A) morphology and (B) cell survival using MTT assay, after 20 h incubation with or without TNF; (C) Western blot analyses at different time points of incubation with TNF. Results are shown as mean±SEM; n.s., not significant; ****p<0.0001. Data are representative of three independent experiments.
L929 cells (LGC Standards, Molsheim, France), were cultured in Dulbecco's modified Eagle's medium (DMEM) (ThermoFisher, Massachusetts, USA) supplemented with 10% fetal bovine serum (Eurobio, Courtaboeuf, France), penicillin (100 IU/ml), streptomycin (0.1 mg/ml), and L-glutamine (0.03%) (ThermoFisher). […]
Cell viability was determined by using 3-(4,5-dimethylthiazol-2-yl)-[…] (MTT) colorimetric assay (ThermoFisher), which measures cell metabolic activity. […] Once MTT crystals were developed and controlled under light microscopy, they were dissolved in DMSO and quantified by measuring absorbance at 540 nm.

HFD-fed mice = assay: RIPA-56 feeding experiment in HFD-fed mice (NASH/steatosis model); type: in vivo, C57BL/6J mice
Protocol: FIG. 2. RIPA-56 treatment improves liver inflammation and fibrosis in HFD-fed mice. Six-week-old male C57BL/6J mice (n=5 per group) were fed either with normal control diet (NCD) or high-fat diet (HFD) supplemented or not with RIPA-56, according to prophylactic (“Pro”) or curative (“Cur”) designs for 16 weeks, the time necessary for an inflammatory and fibrotic response to develop. Differences between mice were determined by analysis of variance (ANOVA) with Bonferroni's multiple comparison. (A) Schematic representation of the experimental design; (B) Immunoblot analyses of whole liver protein extracts from mice fed NCD (1 to 3), HFD (4 to 6), HFD with RIPA-56 “Pro” (7 to 9), or HFD with RIPA-56 “Cur” (10 to 12) using antibodies against RIPK1, MLKL, RIPK3 and GAPDH as loading control; (C) Serum analysis of ALT; (D) Immuno-histochemical analysis of F4/80 on representative liver tissue sections from mice of each group; (E) Quantitative analysis of F4/80^+ foci using ImageJ software, 10 pictures per mouse were quantified; (F) F4/80, Mcp-1 and Tnf mRNA levels were assessed by RT-qPCR. (G) Representative Sirius Red staining of liver tissue section from mice of each group; (H) Quantification of light polarized Sirius Red pictures, 10 pictures per mouse were analyzed; (I) Collal mRNA levels were assessed by RT-qPCR. All data are expressed as mean±SEM; *p<0.05; **p<0.01; ***p<0.001. Scale bars indicate 50 μm.
FIG. 5. RIPA-56 treatment improves HFD-induced obesity and steatosis in mice. Six-week-old male C57BL/6J mice (n=5 per group) were fed either NCD or HFD supplemented or not with RIPA-56 for 16 weeks, as depicted in FIG. 2A, to analyze the metabolic status of the mice. (A) Body weight gain in mice of the 4 groups. No significant change in (B) food intake, (C) spontaneous locomotor activity, or (D) respiratory exchange ratio (RER) in mice Of the 4 groups; (E) Whole energy expenditure was evaluated during daylight and night in mice of the 4 groups; (F) Representative H&E staining of liver tissue sections from mice of the 4 groups. Scale bars, 50 μm; (G) Steatosis score of liver tissue sections was evaluated blinded; (H) Intrahepatic triglyceride contents were measured in two liver samples per mouse. Results are shown as mean±SEM; *p<0.05; **p<0.01; ***p<0.001.
FIG. 6. Fat and lean mass in prophylactically- and curatively-treated mice compared with control mice under HFD. (A) Body fat mass and relative body fat content, and (B) lean mass and relative lean content were evaluated in HFD-fed mice using MRI analysis. All results are shown as mean±SEM; n=5 per group; *p<0.05. Differences between groups were determined by one-way ANOVA with Bonferroni's multiple comparison.
Six-week-old male C57BL/6J mice (Charles River Laboratories, Ecully, France) were fed a high-fat diet (HFD—45 kcal % fat) or a normal chow diet (NCD) (Ssniff spezialdiäten GmbH, Soest, Germany) for 16 weeks (the time necessary for an inflammatory and fibrotic response to develop).
RIPA-56 (MedChemExpress, Stockholm, Sweden) was incorporated in diet by Ssniff spezialdiäten GmbH (Soest, Germany) according to a standardized protocol. Ssniff company is an approved manufacturer of laboratory animal diets and has the license to produce medicated feed for laboratory animals in accordance with Directive 2001/82/EC. Before the end of the feeding period, mice were single housed for one week in metabolic cages to measure food intake, respiratory exchange ratio (RER), energy expenditure and spontaneous locomotor activity using a LabMaster indirect calorimetry system (TSE Systems GmbH, Bad Homburg, Germany). Mice were sacrificed under anesthesia and blood was collected via intracardiac puncture procedure. Tissue samples were either directly snap-freezed in liquid nitrogen for molecular analysis or fixed in 4% PFA and embedded in paraffin for histological analysis. […]

In the case of `CCC(C)(C)C(=O)N(O)Cc1ccccc1` [RIPA-56, N-Benzyl-N-hydroxy-2,2-dimethylbutanamide], the RIPK1-dependent cell death (L929 cells) is reported as “prevents”, the “MLKL and RIPK3 expression in liver (Western blot)” value (HFD-fed mice; HFD 16 weeks, 300 mg/kg in diet, both prophylactic and curative treatments) is reported as “repressed” and the “hepatic fat content by blinded histological analyses” value (HFD-fed mice; HFD-fed mice) is reported as “marked decrease”. For the same compound, the “hepatic triglyceride content, reduction” value (HFD-fed mice; HFD-fed mice) was 30-40%, the “increments in liver mRNA levels of Ccl20, Nlrp3 or Il-1b” value (HFD-fed mice; RIPA-56-treated HFD-fed mice) was “abrogated or reduced” and the “expression of RIPK1 in liver” value (HFD-fed mice; Western blot and RT-qPCR) was “not impacted”. The steatosis (HFD-fed mice; both curative and prophylactic settings) was “largely reduced”, the “increase of serum alanine aminotransferase (ALT)” value (HFD-fed mice; both prophylactic and curative settings) was “abolished” and the “macrophage infiltration (hepatic F4/80 immunostaining)” value (HFD-fed mice; both prophylactic and curative treatments) was “suppressed”. For the same compound, the “liver mRNA levels of F4/80 and Mcp-1, difference HFD vs NCD” value (HFD-fed mice; both regimens) was “disappeared”, the “mRNA levels of MLKL and RIPK3 in liver” value (HFD-fed mice; both regimens, RT-qPCR) was “decreased” and the “body weight gain, fat- or lean-mass vs untreated HFD-fed mice” value (HFD-fed mice; curative setting, start after 12 weeks of HFD) was “did not result in differences”. The “Collagen-1a1 (Col1a1) mRNA levels in liver” value (HFD-fed mice; curative treatment) was “reduced”, the “TNFα expression in liver” value (HFD-fed mice; curative treatment) was “markedly reduced” and the “intensity of histologic features of NASH” value (HFD-fed mice; curative treatment) was “largely attenuates”. For the same compound, the “pericellular fibrosis (Sirius red staining)” value (HFD-fed mice; prophylactic and curative treatments) was “virtually disappeared”, the “MLKL and RIPK3 expression in liver (Western blot)” value (HFD-fed mice; prophylactic setting) was “almost complete inhibition” and the “body weight gain, lower than untreated HFD-fed mice” value (HFD-fed mice; prophylactic setting) was about 12%. For the same compound, the “fat and relative fat mass (MRI)” value (HFD-fed mice; prophylactic setting) was “significant decrease”, the “lean and relative lean body mass (MRI)” value (HFD-fed mice; prophylactic setting) was “trend towards increased” and the “Collagen-1a1 (Col1a1) mRNA levels in liver” value (HFD-fed mice; prophylactic treatment) was “no longer increased”. The “histologic features of NASH” value (HFD-fed mice; prophylactic treatment) was “prevents”, the “increase of TNFα expression in liver” value (HFD-fed mice; prophylactic treatment) was “not after RIPA-56 prophylactic treatment” and the “energy expenditure (indirect calorimetry)” value (HFD-fed mice; prophylactic treatment vs curative or no treatment) was “increased”.
